Converted amounts (≈) assume the structure as drawn.
Legend:
[1] = system: Candida albicans (ATCC 44858); conditions: 3 mg/kg PO; 15-day observation
C. guilliermondii = assay: In vitro antifungal susceptibility CLSI M27-A2 (MIC, MFC); format: cell-based; conditions: C. guilliermondii (2)
C. kefyr = assay: as above; format: cell-based; conditions: C. kefyr (10)
C. rugosa = assay: as above; format: cell-based; conditions: C. rugosa (2)
Histoplasma capsulatum = format: cell-based; conditions: 4 of the H isolates
A. glaucus = assay: In vitro antifungal susceptibility CLSI M38-A (MIC); format: cell-based; conditions: 5 isolates
Protocol: (§1) In addition, MFC ([…]) was done for each species. The geometric mean (GM) was calculated for each isolate using all three results. All testing was performed in triplicate to verify the reproducibility of the data.
(§2) A total of 31 isolates of Aspergillus were evaluated. This included six different species of Aspergillus which included six strains of A. fumigatus, and 5 strains of A. flavus, A. terreus, A. niger and A. glaucus.

A. terreus = assay: as above; format: cell-based; conditions: 5 isolates
Protocol: as §1, §2

A. niger = assay: as above; format: cell-based; conditions: 5 isolates
Protocol: as §1, §2

A. flavus = assay: as above; format: cell-based; conditions: 5 isolates
Protocol: as §1, §2

A. fumigatus = assay: as above; format: cell-based; conditions: A. fumigates, 6 isolates
Protocol: as §1, §2

A. versicolor = assay: as above; format: cell-based; conditions: 5 isolates
Protocol: as §1, §2

Naegleria fowleri = assay: Primary amoebic meningoencephalitis in mice; format: in vivo, Balb/c mice; conditions: 9 mg/kg/day for a total of 10 days
C. albicans = assay: In vitro antifungal susceptibility CLSI M27-A2 (MIC, MFC); format: cell-based; conditions: C. albicans (10)
C. glabrata = assay: as above; format: cell-based; conditions: C. glabrata (10)

In the case of C[C@@H]1[C@H](O)[C@@H](C)/C=C/C=C/C=C/C=C/C=C/C=C/C=C/[C@H](O[C@@H]2O[C@H](C)[C@@H](O)[C@H](N)[C@@H]2O)C[C@@H]2O[C@](O)(C[C@@H](O)C[C@@H](O)[C@H](O)CC[C@@H](O)C[C@@H](O)CC(=O)O[C@H]1C)C[C@H](O)[C@H]2C(=O)O [Amphotericin B, amphotericin B], the “increase in survival rate” value [1] is reported as 80%, the “GM (geometric mean MIC)” value (C. guilliermondii) is reported as 0.5 µg/mL and the MFC (C. guilliermondii) is reported as 1 µg/mL (≈ 1.08 µM). For the same molecule, the “MIC Range” value (C. guilliermondii) was 0.5 µg/mL (≈ 0.541 µM), the “GM (geometric mean MIC)” value (C. kefyr) was 1.25 µg/mL and the MFC (C. kefyr) was 1 µg/mL (≈ 1.08 µM). For the same molecule, the MIC50 (C. kefyr) was 1 µg/mL (≈ 1.08 µM), the MIC90 (C. kefyr) was 2 µg/mL (≈ 2.16 µM) and the “MIC Range” value (C. kefyr) was 0.12 to 2.0 µg/mL. For the same molecule, the “GM (geometric mean MIC)” value (C. rugosa) was 0.83 µg/mL, the MFC (C. rugosa) was 2 µg/mL (≈ 2.16 µM) and the “MIC Range” value (C. rugosa) was 0.5 to 1.0 µg/mL. It also gave an MFC (Histoplasma capsulatum) of 0.5 µg/mL (≈ 0.541 µM), an MIC (Histoplasma capsulatum) of 0.5 µg/mL (≈ 0.541 µM) and a GM (A. glaucus) of 0.7 µg/mL. The MIC50 (A. glaucus) was 0.5 µg/mL (≈ 0.541 µM), the “MIC Range” value (A. glaucus) was 0.25 to 1 µg/mL and the GM (A. terreus) was 2.0 µg/mL. The MIC50 (A. terreus) was 2 µg/mL (≈ 2.16 µM), the “MIC Range” value (A. terreus) was 2 to 4 µg/mL and the GM (A. niger) was 0.8 µg/mL. For the same molecule, the MIC50 (A. niger) was 1 µg/mL (≈ 1.08 µM), the “MIC Range” value (A. niger) was 0.5 to 1 µg/mL and the GM (A. flavus) was 4.8 µg/mL. The MIC50 (A. flavus) was 2 µg/mL (≈ 2.16 µM), the “MIC Range” value (A. flavus) was 2 to 16 µg/mL and the GM (A. fumigatus) was 1.58 µg/mL. The MIC50 (A. fumigatus) was 2 µg/mL (≈ 2.16 µM), the “MIC Range” value (A. fumigatus) was 0.5 to 2 µg/mL and the GM (A. versicolor) was 0.9 µg/mL. The MIC50 (A. versicolor) was 1 µg/mL (≈ 1.08 µM), the “MIC Range” value (A. versicolor) was 0.25 to 2 µg/mL and the survival (Naegleria fowleri) was “no improvement in survival over the control”. For the same molecule, the “GM (geometric mean MIC)” value (C. albicans) was 0.612 µg/mL, the MFC (C. albicans) was 1 µg/mL (≈ 1.08 µM) and the MIC50 (C. albicans) was 0.5 µg/mL (≈ 0.541 µM). The MIC90 (C. albicans) was 1 µg/mL (≈ 1.08 µM), the “MIC Range” value (C. albicans) was 0.12 to 1 µg/mL and the “GM (geometric mean MIC)” value (C. glabrata) was 0.9 µg/mL. The MFC (C. glabrata) was 1 µg/mL (≈ 1.08 µM), the MIC50 (C. glabrata) was 1 µg/mL (≈ 1.08 µM) and the MIC90 (C. glabrata) was 1 µg/mL (≈ 1.08 µM). For the same molecule, the “MIC Range” value (C. glabrata) was 0.5 to 1.0 µg/mL and the MIC50 (C. glabrata; listed as amphotericin B) was 1.0 µg/mL (≈ 1.08 µM).

From US9212201B2, “Antifungal and antiparasitic polyene macrolides” (priority 2010, dated 2015)
